Test system: strains of Enterobacteriaceae producing various carbapenemases (class A, D and B; 104 strains)
Assay: Antibiotics potentiation by Compound 27 (MIC; meropenem, doripenem, ertapenem, cefepime)
Format: cell-based
Settings: + 27 = with Compound 27 at fixed 4 μg/ml

C[C@@H](O)[C@H]1C(=O)N2C(C(=O)O)=C(S[C@@H]3CN[C@H](C(=O)Nc4cccc(C(=O)O)c4)C3)[C@H](C)[C@H]12 [E] was tested, and the MIC (strain CF1012 Citrobacter freundii (KPC-2)) was “Z (MIC of greater than 10 μg/mL)”, the MIC (strain CF1021 Citrobacter freundii (CMY-type; VIM-1)) was “Y (MIC of 1 μg/mL to 10 μg/mL)” and the MIC (strain CF1022 Citrobacter freundii (SHV-12(2be), TEM-OSBL(2b); IMP-8)) was “Y (MIC of 1 μg/mL to 10 μg/mL)”. The MIC (strain CF1023 Citrobacter freundii (SHV-12(2be), TEM-OSBL(2b); CTX-M-3; CMY-34; NDM-1)) was “Z (MIC of greater than 10 μg/mL)”, the MIC (strain CL1080 Enterobacter cloacae (IMP-1)) was “Y (MIC of 1 μg/mL to 10 μg/mL)” and the MIC (strain EA1019 Enterobacter aerogenes (SHV-5, VIM-1)) was “Z (MIC of greater than 10 μg/mL)”. The MIC (strain EC1007 Escherichia coli (KPC-3)) was “X (MIC of less than 1 μg/mL)”, the MIC (strain EC1061 Escherichia coli (NDM-1, CMY-6)) was “Z (MIC of greater than 10 μg/mL)” and the MIC (strain EC1062 Escherichia coli (OXA-48, CTX-M-15)) was “Y (MIC of 1 μg/mL to 10 μg/mL)”. The MIC (strain EC1064 Escherichia coli (NDM-1, CMY-6, CTX-M-15)) was “Z (MIC of greater than 10 μg/mL)”, the MIC (strain EC1065 Escherichia coli (IMP-1)) was “Y (MIC of 1 μg/mL to 10 μg/mL)” and the MIC (strain EC1068 Escherichia coli (VIM-1)) was “Z (MIC of greater than 10 μg/mL)”. For the same molecule, the MIC (strain EC1069 Escherichia coli (CTX-M-27; NDM-1)) was “Z (MIC of greater than 10 μg/mL)”, the MIC (strain EC1070 Escherichia coli (TEM-OSBL(2b); CMY-42; NDM-5)) was “Z (MIC of greater than 10 μg/mL)” and the MIC (strain EC1072 Escherichia coli (CTX-M-3; NDM-1)) was “Z (MIC of greater than 10 μg/mL)”. For the same molecule, the MIC (strain ECL1004 Enterobacter cloacae (NMC-A)) was “Z (MIC of greater than 10 μg/mL)”, the MIC (strain ECL1026 Enterobacter cloacae (KPC-2, TEM-1)) was “Z (MIC of greater than 10 μg/mL)” and the MIC (strain ECL1036 Enterobacter cloacae (KPC-3, TEM-1)) was “Y (MIC of 1 μg/mL to 10 μg/mL)”. For the same molecule, the MIC (strain ECL1045 Enterobacter cloacae (VIM-1)) was “Z (MIC of greater than 10 μg/mL)”, the MIC (strain ECL1055 Enterobacter cloacae (KPC-3, TEM)) was “Z (MIC of greater than 10 μg/mL)” and the MIC (strain ECL1057 Enterobacter cloacae (NDM-1, TEM-1, CTX-M-15)) was “Z (MIC of greater than 10 μg/mL)”. The MIC (strain ECL1058 Enterobacter cloacae (KPC-3, SHV-11, TEM-1)) was “Z (MIC of greater than 10 μg/mL)”, the MIC (strain ECL1059 Enterobacter cloacae (KPC-3, SHV-12, TEM-1)) was “Y (MIC of 1 μg/mL to 10 μg/mL)” and the MIC (strain ECL1061 Enterobacter cloacae (KPC-3, Hyper AmpC expression)) was “Z (MIC of greater than 10 μg/mL)”. The MIC (strain ECL1082 Enterobacter cloacae (VIM-1)) was “Y (MIC of 1 μg/mL to 10 μg/mL)”, the MIC (strain ECL1084 Enterobacter cloacae (CTX-M-15; ACT-16; NDM-1)) was “Z (MIC of greater than 10 μg/mL)” and the MIC (strain ECL1085 Enterobacter cloacae (SHV-31(2be), TEM-1(2b); CTX-M-15; NDM-1)) was “Z (MIC of greater than 10 μg/mL)”. For the same molecule, the MIC (strain ECL1086 Enterobacter cloacae (VIM-31, OXA-48(c))) was “Z (MIC of greater than 10 μg/mL)”, the MIC (strain ECL1087 Enterobacter cloacae (VIM-1)) was “Z (MIC of greater than 10 μg/mL)” and the MIC (strain ECL1088 Enterobacter cloacae (TEM-1(2b); CTX-M-14; ACT-type; VIM-1)) was “Z (MIC of greater than 10 μg/mL)”. The MIC (strain ECL1089 Enterobacter cloacae (ACT-type; IMP-1)) was “Z (MIC of greater than 10 μg/mL)”, the MIC (strain ECL1090 Enterobacter cloacae (TEM-1(2b); CTX-M-22; ACT-type; IMP-8)) was “Y (MIC of 1 μg/mL to 10 μg/mL)” and the MIC (strain ECL1091 Enterobacter cloacae (VIM-1)) was “Y (MIC of 1 μg/mL to 10 μg/mL)”. For the same molecule, the MIC (strain ECL1092 Enterobacter cloacae (TEM-OSBL(2b); ACT-32; VIM-1)) was “Y (MIC of 1 μg/mL to 10 μg/mL)”, the MIC (strain ECL1093 Enterobacter cloacae (TEM-OSBL(2b); ACT-32; VIM-1)) was “Y (MIC of 1 μg/mL to 10 μg/mL)” and the MIC (strain ECL1094 Enterobacter cloacae (VIM-1)) was “Z (MIC of greater than 10 μg/mL)”. For the same molecule, the MIC (strain ECL1096 Enterobacter cloacae (CMY-4, VIM-4, OXA-48(c))) was “Z (MIC of greater than 10 μg/mL)”, the MIC (strain ECL1097 Enterobacter cloacae (SHV-31(2be), TEM-OSBL(2b); CTX-M-15; ACT-31; NDM-1)) was “Z (MIC of greater than 10 μg/mL)” and the MIC (strain ECL1098 Enterobacter cloacae (TEM-OSBL(2b); DHA-1; ACT-16; NDM-1)) was “Z (MIC of greater than 10 μg/mL)”. For the same molecule, the MIC (strain KP1001 Klebsiella pneumoniae (KPC TEM SHV)) was “Z (MIC of greater than 10 μg/mL)”, the MIC (strain KP1002 Klebsiella pneumoniae (KPC TEM SHV)) was “Y (MIC of 1 μg/mL to 10 μg/mL)” and the MIC (strain KP1003 Klebsiella pneumoniae (KPC TEM SHV)) was “Z (MIC of greater than 10 μg/mL)”. The MIC (strain KP1004 Klebsiella pneumoniae (KPC-2, TEM-1, SHV-11)) was “Z (MIC of greater than 10 μg/mL)”, the MIC (strain KP1008 Klebsiella pneumoniae (KPC-2)) was “Y (MIC of 1 μg/mL to 10 μg/mL)” and the MIC (strain KP1014 Klebsiella pneumoniae (VIM-1, TEM, SHV)) was “Y (MIC of 1 μg/mL to 10 μg/mL)”. The MIC (strain KP1054 Klebsiella pneumoniae (VIM-1, SHV-11)) was “Y (MIC of 1 μg/mL to 10 μg/mL)”, the MIC (strain KP1059 Klebsiella pneumoniae (VIM-1, SHV-11)) was “Z (MIC of greater than 10 μg/mL)” and the MIC (strain KP1061 Klebsiella pneumoniae (KPC-3, SHV-11, TEM-1)) was “Z (MIC of greater than 10 μg/mL)”. The MIC (strain KP1064 Klebsiella pneumoniae (KPC-2, SHV-11, TEM-1)) was “Z (MIC of greater than 10 μg/mL)”, the MIC (strain KP1065 Klebsiella pneumoniae (VIM-1, SHV-11)) was “Y (MIC of 1 μg/mL to 10 μg/mL)” and the MIC (strain KP1070 Klebsiella pneumoniae (KPC-2, SHV-11, TEM-1)) was “Z (MIC of greater than 10 μg/mL)”. For the same molecule, the MIC (strain KP1074 Klebsiella pneumoniae (KPC-3, SHV-11, TEM)) was “Z (MIC of greater than 10 μg/mL)”.

From patent publication US10206937B2, “Boronic acid derivatives and therapeutic uses thereof” (Qpex Biopharma, Inc., priority 2014, dated 2019)
